Laboratory results reported in article PMC7703437, “In Vitro Hepatic Metabolism of Curcumin Diethyl Disuccinate by Liver S9 from Different Animal Species” (Frontiers in Pharmacology, 2020).

What was measured:
[1] = design: method as in Muangnoi et al., 2019b; settings: ref Muangnoi et al., 2019b; cited from earlier work
[2] = system: LS9 from all tested species (HLS9, MLS9, DLS9, RLS9); assay: In vitro metabolism profiling of CDD, statements for LS9 from all tested species; type: in vitro ADME, human, monkey, dog, rat; settings: within the first 15 min of incubation, LS9 1 mg/ml from all tested species, CDD 3 µM
Description: (§1) The metabolism profiles of CDD were investigated against HLS9, MLS9, DLS9, and RLS9. A stock solution of CDD was prepared at 150 µM in 50% acetonitrile in water before use. The metabolism study was initiated by spiking 735 µl of preincubated LS9 with 15 µl of CDD stock solution, and the mixture was subsequently incubated at 37°C. The final concentrations of CDD and LS9 were 3 μM and 1 mg/ml, respectively. A 50-µl aliquot from the mixture was collected at 0.5, 1, 2, 3, 4, 5, 10, 15, 30, 45, 60, 90, and 120 min and immediately mixed with 100 µl of ice-cold acetonitrile containing 0.45 µM of internal standard DMC to terminate the metabolic reaction. […] The sample at the initial time point (0 min) was prepared as the other samples, except that heat-inactivated HLS9, MLS9, DLS9, and RLS9 (80°C for 20 min; 1 mg/ml protein) were used.
(§2) The UHPLC system consisted of an Agilent series 1290 quaternary pump with an online degasser, autosampler, column oven, and diode array detector. The mobile phase was composed of (A) 0.1% (v/v) formic acid in acetonitrile and (B) 0.1% (v/v) formic acid in water. Each solution was filtered through a nylon filter (pore size, 0.22 µm; MS® Membrane Filters; Membrane Solutions, United States) before use. The mobile phase flow rate was kept at 1.2 ml/min in a gradient mode using the following elution program: 0–3.0 min, initial A-B (40:60, v/v); 4.5–7.0 min, isocratic elution A-B [50:50, (v/v); 8.5–11.0 min, isocratic elution A-B (60:40, v/v); and 12.0–17.0 min, isocratic elution A-B (40:60, v/v)]. CDD, curcumin, and MSCUR in the supernatant were partitioned using a C8 column (4.6 mm × 50 mm, 2.7 µm; HALO, Advanced Materials Technology, United States) with reference to DMC. The detection wavelength was set at 400 nm (λ max(CDD) = 400 nm, λ max(curcumin) = 427 nm, λ max(MSCUR) = 418 nm, and λ max(DMC) = 421 nm). The column was maintained at 35°C throughout the run, and the supernatant injection volume was set at 20 µl.
(§3) The concentrations of CDD, curcumin, and MSCUR in the supernatant were determined from the standard plots, which were prepared by spiking individual working solutions of the compounds to heat-inactivated HLS9, MLS9, DLS9, and RLS9 ([Alcorn et al., 2007]; [Montoro-Garcia et al., 2009]; [Singh et al., 2010]). […]
(§4) The following equations were adopted to describe the changes in CDD and MSCUR content over time (t): A = A0e^−k1t (2) B= k1A0/k2−k1(e^−k1t−e^−k2t), (3) where A0 is the CDD concentration at time 0, k 1 is the degradation rate constant of CDD, and k 2 is the degradation rate constant of MSCUR. k 1 and k 2 were determined by using Eqs. […] The half-life (t 1/2) was calculated using Eq. 4: t1/2=0.693/k (4)

[3] = as above; type: in vitro ADME, human, monkey, dog, rat; settings: beagle (dog); Sprague-Dawley (rat), human, monkey, dog, rat, liver S9 (LS9); all LS9s; read-out: t 1/2 of CDD
Description: as §1, §2, §3, §4

[4] = system: monkey LS9 (MLS9; cynomolgus); assay: In vitro metabolism profiling of CDD in monkey liver S9 (1 mg/ml); type: in vitro ADME
Description: as §1, §2
(§5) The concentrations of CDD, curcumin, and MSCUR in the supernatant were determined from the standard plots, which were prepared by spiking individual working solutions of the compounds to heat-inactivated HLS9, MLS9, DLS9, and RLS9 ([Alcorn et al., 2007]; [Montoro-Garcia et al., 2009]; [Singh et al., 2010]). These working standards were extracted with 100 µl of ice-cold acetonitrile containing 0.45 µM of DMC and then 120 μl of the supernatant was diluted with 40 μl of water prior to the UHPLC analysis. The peak area ratios of CDD, curcumin, and MSCUR to the internal standard were computed against linear concentration ranges of 0.025–4.5 µM CDD, 0.025–4.5 µM curcumin, and 0.0125–0.75 µM MSCUR, respectively, with the coefficient of determination (r^2) values greater than 0.99.
(§6) The percent content of CDD and the metabolites formed upon its incubation with LS9, namely, curcumin and MSCUR, was plotted against incubation time.
(§7) The following equations were adopted to describe the changes in CDD and MSCUR content over time (t): A = A0e^−k1t (2) B= k1A0/k2−k1(e^−k1t−e^−k2t), (3) where A0 is the CDD concentration at time 0, k 1 is the degradation rate constant of CDD, and k 2 is the degradation rate constant of MSCUR. k 1 and k 2 were determined by using Eqs. 2 and 3, respectively, with nonlinear regression analysis using the SOLVER function of Microsoft Excel for Office 365 MSO (16.0.12527.20986) ([Brown, 2001]). The half-life (t 1/2) was calculated using Eq. 4: t1/2=0.693/k (4)
(§8) The in vitro intrinsic clearance (CLint,in vitro) of CDD and MSCUR in LS9 was calculated using Eq. 5: CLint, in vitro= k × [V]incubation(ml)/[P]incubation(mg protein), (5) where [V]incubation is the incubation volume in ml, and [P]incubation is the amount of LS9. […]

[5] = as above; type: in vitro ADME, monkey (cynomolgus); settings: liver S9; monkey LS9 1 mg/ml; read-out: t 1/2 (CDD)
Description: as §1, §2, §5, §6, §7, §8

[6] = In vitro metabolism profiling of CDD in dog liver S9 (1 mg/ml); type: in vitro ADME, dog (beagle); settings: beagle, liver S9; dog LS9 1 mg/ml; read-out: t 1/2 (CDD)
Description: as §1, §2, §5, §6, §7, §8

dog LS9 (DLS9; beagle) = assay: as above; type: in vitro ADME
Description: as §1, §2, §5, §6, §7, §8

Structure (SMILES): CCOC(=O)CCC(=O)Oc1ccc(/C=C/C(=O)/C=C(O)/C=C/c2ccc(OC(=O)CCC(=O)OCC)c(OC)c2)cc1OC [CDD, curcumin diethyl disuccinate]
- log P [1]: 2.55
- CDD hydrolyzed [2]: more than 95%
- half-life at 3 µM [3]: < 62.4 s
- CLint, in vitro(CDD) ([4]; monkey LS9): 0.81 ± 0.13 ml min^−1 mg protein^−1
- k 1 (CDD) ([4]; monkey LS9 1 mg/ml, CDD 3 µM, 37°C): 0.81 ± 0.13 min⁻¹
- CLint, in vivo(CDD) ([4]; monkey, scaled from CLint,in vitro with physiologically based scaling factors): 176.96 ± 27.49 L/h/kg
- CLint, in vivo total ([4]; monkey, sum of CLint,in vivo(CDD) and CLint,in vivo(MSCUR)): 4,704.26 ± 695.64 L h^−1 kg^−1
- CLH (predicted hepatic clearance) ([4]; monkey, well-stirred model, QH 44 ml min^−1 kg^−1, fup 0.0594): 2.61 ± 3.87 × 10^–3 L h^−1 kg^−1
- half-life at 3 µM [5]: 52.2 ± 7.8 s
- half-life at 3 µM [6]: 52.2 ± 15 s
- CLint, in vitro(CDD) (dog LS9 (DLS9; beagle); dog LS9): 0.85 ± 0.29 ml min^−1 mg protein^−1
- k 1 (CDD) (dog LS9 (DLS9; beagle); dog LS9 1 mg/ml, CDD 3 µM, 37°C): 0.85 ± 0.29 min⁻¹
- CLint, in vivo(CDD) (dog LS9 (DLS9; beagle); dog, scaled from CLint,in vitro with physiologically based scaling factors): 198.61 ± 66.73 L/h/kg
- CLint, in vivo total (dog LS9 (DLS9; beagle); dog, sum of CLint,in vivo(CDD) and CLint,in vivo(MSCUR)): 5,915.59 ± 535.14 L h^−1 kg^−1
- CLH (predicted hepatic clearance) (dog LS9 (DLS9; beagle); dog, well-stirred model, QH 40 ml min^−1 kg^−1, fup 0.0594): 2.38 ± 1.48 × 10^–3 L h^−1 kg^−1
